Test results published in patent US12491170B2, “Stable treprostinil prodrugs” (United Therapeutics Corporation, priority 2020, dated 2025).
Read-outs that look alike come from different tables or passages of the source.

Legend:
[1] = Stability in liver microsomes, human; conditions: for AUC: human
[2] = Stability in liver microsomes, rat
[3] = Stability in liver microsomes, dog
[4] = Stability in human subcutaneous skin homogenate; conditions: for AUC: human
Procedure: The pool of skin homogenate was prepared by combining equal volumes of three lots that were tested in the initial skin homogenate lot assessment experiments.
A stock solution of calcein-AM was first prepared at 5 mM in DMSO, followed by a serial dilution into methanol at a concentration of 100 μM. 495 μL of skin homogenate was thawed and warmed to 37° C. A 5 μL aliquot of the 100 μM calcein-AM solution was spiked into the skin homogenate, for a final calcein-AM dosing concentration of 1 μM. After briefly mixing, 150 μL aliquots were removed in triplicate and transferred to 96-well Falcon plates. The plates were placed onto a Thermomixer and maintained at 37° C., with gentle shaking for the duration of the experiment. At each time point (0, 15, 30, 60, and 120 minutes), the plate was removed from the Thermomixer and transferred to a FLUOstar® plate reader, and the formation of calcein (Sigma) was monitored by fluorescence (490/515 nm). Calibration standards of calcein were prepared in distilled water by serial dilutions of a calcein DMSO stock at final concentrations ranging from 1 μM to 1 nM. All samples and standards were read concurrently (Table 13).
For each of the test articles, 495 μL of skin homogenate was added to triplicate centrifuge tubes. To each tube, 5 μL of a 100 μM solution of test article was added, for a final test article dosing concentration of 1 μM. The tubes were placed onto a Thermomixer and maintained at 37° C. with gentle shaking for the duration of the experiment. At each time point (0, 30, 60, and 120 minutes), a 100 μL aliquot was removed from each tube and combined with 200 μL of acetonitrile to stop the stability reaction. The tubes were mixed and centrifuged at 3000 rpm for 10 minutes. Aliquots of supernatant were removed and diluted 1:1 with distilled water containing internal standard (2 μM treprostinil-d4). Calibration standards for the treprostinil analysis were prepared for each test article in a surrogate matrix (supernatant from a mixture of 1:2 human plasma:acetonitrile), at concentrations ranging from 1 μM to 1 nM. Calibration standards were also diluted 1:1 with distilled water containing internal standard. The disappearance of each individual test article was monitored, as well as the formation of treprostinil (Table 14 and Table 15).

[5] = rat
[6] = dog

Trep Concentration 0 min [1] [µM]	Trep Concentration 20 min [1] [µM]	Trep Concentration 30 min [1] [µM]	Trep Concentration 60 min [1] [µM]	AUC [1] [µmol·min/L]	Trep Concentration 0 min [2] [µM]	Trep Concentration 10 min [2] [µM]	Trep Concentration 20 min [2] [µM]	Trep Concentration 30 min [2] [µM]	Trep Concentration 60 min [2] [µM]	Trep Concentration 0 min [3] [µM]	Trep Concentration 10 min [3] [µM]	Trep Concentration 20 min [3] [µM]	Trep Concentration 60 min [3] [µM]	Trep Concentration 0 min [4] [µM]	Trep Concentration 30 min [4] [µM]	Trep Concentration 60 min [4] [µM]	AUC [4] [µmol·min/L]	AUC [5] [µmol·min/L]	AUC [6] [µmol·min/L]	also measured	SMILES
0.0216	0.0343	0.0459	0.0354	2.24	0.0196	0.0177	0.024	0.0274	0.0271	0.0189	0.0224	0.0209	0.0222	0.0159	0.0165	0.0165	1.99	1.47	1.33	Trep Concentration 10 min [1]: 0.0336 µM	CCCCCC(O)CCC1C(OC)CC2Cc3c(cccc3OCC(=O)O)CC21 (centres unmarked) [LIII]
0.948	0.679	0.538	0.346	35.46	0.937	0.938	0.892	0.838	0.802	0.758	0.885	0.868	0.84	0.0201	1.05	1.22	125.70	51.78	50.60	Trep Concentration 10 min [1]: 0.798 µM; Trep Concentration 30 min [3]: 0.834 µM; Trep Concentration 120 min [4]: 1.3 µM	CCCCCC(CCC1C(O)CC2Cc3c(cccc3OCC(=O)O)CC21)OCOC(=O)C(C)(C)C (centres unmarked) [LII]
0	0.014	0.018	0.022	0.83	0	0	0	0	0	0	0	0	0	0	0	0	0.00	0.00	0.00	Trep Concentration 10 min [1]: 0 µM; Trep Concentration 30 min [3]: 0 µM; Trep Concentration 120 min [4]: 0 µM	CCCCCC(CCC1C(O)CC2Cc3c(cccc3OCC(=O)O)CC21)OC(=O)N1CCCCC1 (centres unmarked) [XIX]
0.55	0.5	0.39	0.27	25.10	0.29	0.46	0.48	0.53	0.53	0.45	0.57	0.66	0.85	0	0.064	0.12	13.92	29.40	42.10	Trep Concentration 10 min [1]: 0.55 µM; Trep Concentration 30 min [3]: 0.74 µM; Trep Concentration 120 min [4]: 0.22 µM	CCCCCC(CCC1C(O)CC2Cc3c(cccc3OCC(=O)O)CC21)OC(=O)OC(C)C (centres unmarked) [XVII]
0.69	0.49	0.41	0.25	26.30	0.98	0.97	0.92	0.91	0.86	0.66	0.95	1.01	0.92	0	0.17	0.31	34.95	54.90	56.90	Trep Concentration 10 min [1]: 0.6 µM; Trep Concentration 30 min [3]: 1.01 µM; Trep Concentration 120 min [4]: 0.53 µM	CCCCCC(CCC1C(O)CC2Cc3c(cccc3OCC(=O)O)CC21)OC(=O)OCC (centres unmarked) [XVI]
0	0	0	0	0.00	0	0	0	0	0.016	0	0	0	0	0	0	0	0.00	0.24	0.00	Trep Concentration 10 min [1]: 0 µM; Trep Concentration 30 min [3]: 0 µM; Trep Concentration 120 min [4]: 0 µM	CCCCCC(O)CCC1C(OC(=O)CCC(=O)O)CC2Cc3c(cccc3OCC(=O)O)CC21 (centres unmarked) [XXII]
0.00482	0.0168	0.0173	0.0265	1.05	0	0.00463	0.00443	0.0102	0.0178	0	0.012	0.0177	0.0334	0	0.0333	0.0488	5.47	0.56	1.30	Trep Concentration 30 min [3]: 0.025 µM; Trep Concentration 120 min [4]: 0.0759 µM	CCCCC[C@@H](CC[C@@H]1[C@H]2Cc3cccc(OCC(=O)O)c3C[C@H]2C[C@H]1O)OC(=O)[C@@H](N)C(C)C [XXIX]
